This test has as its system CEM cells HIV-1 protection, formazan growth assay. As to the kind of experiment: NCI AIDS Antiviral Assay. The conditions noted are these: for pIC50: measured here: growth of uninfected CEM cells. In short, it runs like this:
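Steps: treat uninfected and HIV-1-infected human CEM cells at five drug levels; quantify growth by soluble formazan; retest any compound reaching 50% protection; classify actives from the retest.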

pEC50, pIC50: −log10 of the molar value. Activity calls are given as the source filed them.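 The calls were made as follows: active = compounds giving half or more protection of infected cells from virus-caused growth loss, again on retest; inactive = the rest.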 Where only a bound is given, the exact number is not on record here.

The source of these data is PubChem BioAssay AID179 (DTP/NCI, 2004).

A word on the pEC50: it is the EC50 on a negative log10 scale, so that one unit is a factor of ten. One may read the pIC50 as the IC50 on a negative log10 scale, so that one unit is a factor of ten.

With `CC1(C)c2ccccc2C(O)C12CCC(=O)CC2` (stereo not drawn), the pEC50 is under 3.70 and the pIC50 was under 3.70. On to `Nc1ccc(-c2nc3sc(-c4ccc(N)cc4)nc3s2)cc1`, for which the pEC50 was under 4.79 and the negative logarithm of the IC50 (pIC50) was under 4.79. On to `N#C/C(=C\c1ccc(Br)cc1)C(=O)c1ccccc1`, for which the pEC50 was under 4.02 and the pIC50 was 4.17. Taken in the same sequence, the figures for `CCOP(=O)(OCC)C(F)(F)CC1CCCCC1` were under 3.70 and 3.77. Taken in the same sequence, the figures for `NC1CC(=O)c2csc(Br)c21` (stereo not drawn) were under 4.24 and 4.96. In the case of `COc1ccc(-c2c(C(C)=O)c(C)n(C3OC(COC(C)=O)C(OC(C)=O)C(OC(C)=O)C3OC(C)=O)c(=S)c2C#N)cc1` (stereo not drawn), the pEC50 is under 3.70 and the pIC50 is 4.06.

In the case of `O=c1/c(=C/c2c(O)ccc3ccccc23)sc2nc3ccccc3n12`, the result was inactive.

As to `CCC([NH-])C(=O)O.CCC([NH-])C(=O)O.[Cu+2]` (stereo not drawn), the pEC50 was under 3.70 and the negative-log IC50 (pIC50) is 4.74. Taken in the same sequence, the figures for `CNC/C(Cl)=N/S(=O)(=O)c1ccc(C)cc1` were under 4.23 and 5.56. Regarding `C=C1CN(S(=O)(=O)c2ccc([N+](=O)[O-])cc2)CC(=C)CN(S(=O)(=O)c2ccc([N+](=O)[O-])cc2)C1`, the pEC50 was under 3.70 and the pIC50 was under 3.70. On to `N#C[C@H](c1nc2ccccc2[nH]1)c1nc2ccccc2nc1Cl`, for which the pEC50 is under 3.70 and the pIC50 is 4.96. For the molecule `CC1C(=O)C2C1CS2(=O)=O` (stereo not drawn), the pEC50 is under 2.90 and the pIC50 was 2.95. Taken in the same sequence, the figures for `N#CNC(=NCc1ccccc1)N(Cc1ccccc1)Cc1ccccc1` were under 4.83 and under 4.83.

On to `O=C1CSC(=Nc2ccc(F)cc2F)N1Cc1cccs1`, for which the pEC50 was under 3.97 and the pIC50 was 4.39.

As for `Cc1cc(=O)[nH]c(CNC(=O)c2cccc3ccccc23)n1`, the pEC50 was under 3.07 and the pIC50 is under 3.07.

Regarding `CCOC(=O)C1C(=O)C(=O)N2CCc3c([nH]c4ccccc34)C12` (stereo not drawn), the pEC50 was under 3.58 and the pIC50 is 3.78. As for `O=C1NC(=O)C(=Cc2cccc(Cl)c2)C(=O)N1`, the pEC50 was under 3.84 and the pIC50 was under 3.84. Take `O=c1cc(-c2ccccc2)oc2cc(O)c(O)c(O)c12`: the pEC50 is under 3.70 and the pIC50 is 4.65. On the same counts, the results for `O=C(CC1SC(=Nc2ccccc2Cl)NC1=O)Nc1ccc(Cl)cc1` (stereo not drawn) are under 3.20 and under 3.70.

As to `CCOC(=O)CC1(C)SCCN1C(=O)OCC` (stereo not drawn), the pEC50 is under 3.70 and the pIC50 is under 3.70. Take `Oc1cc(O)c(C2c3ccc(O)cc3OC(c3ccc(O)c(O)c3)C2O)c(O)c1` (stereo not drawn): the pEC50 is under 4.33 and the pIC50 is under 4.33. On to `CCC1(CC)SCc2nc3ccccc3n21`, for which the pEC50 was under 3.70 and the pIC50 was 4.20. For the molecule `CC[C@]1(O)C[C@H]2CN(CCc3c([nH]c4ccccc34)[C@@](C(=O)OC)(c3cc4c(cc3OC)N(C)[C@H]3[C@@](O)(C(=O)OC)[C@H](OC(C)=O)[C@]5(CC)C=CCN6CC[C@]43[C@@H]65)C2)C1`, the pEC50 is under 7.52 and the pIC50 was 9.45. Regarding `CCc1c(Sc2ccccn2)n(COCc2ccccc2)c(=O)[nH]c1=O`, the pEC50 was 4.04 and the pIC50 is 3.47. On to `O=C(NCCCN1CC2CCCC2C1)C(c1ccccc1)c1ccccc1` (stereo not drawn), for which the pEC50 was under 3.70 and the pIC50 is 4.40. As for `O=C(O)c1cc2oc(-c3ccccc3)cc2[nH]1`, the pEC50 was under 3.66 and the pIC50 was 3.81. Turning to `c1ccc(-c2nc3cc4c(cc3n3cccc23)oc2ccccc24)cc1`, the pEC50 is under 4.00 and the pIC50 was 4.07. In the case of `C/C(CN1C(=O)c2ccccc2C1=O)=N\NS(=O)(=O)c1cccc(C(=O)O)c1`, the pEC50 was under 3.51 and the pIC50 was under 3.51. For the molecule `c1ccc2c(c1)Nc1ccccc1O2`, the pEC50 is under 4.01 and the pIC50 was 4.63. Turning to `O=C(O)CCCCCCCCCOc1ccccc1`, the pEC50 was under 3.70 and the pIC50 was 4.39. On to `CC(=O)Nc1cc(C(=O)Nc2cc(C(=O)Nc3cc(C(=O)Nc4cc(C(=O)Nc5cc(C(=O)NCCC(=O)NCCCN(C)C)n(C)c5)n(C)c4)n(C)c3)n(C)c2)n(C)c1`, for which the pEC50 was under 3.76 and the pIC50 was 4.57. Regarding `O=C1OC(Cl)C(N=P(c2ccccc2)(c2ccccc2)c2ccccc2)=C1Cl` (stereo not drawn), the pEC50 is under 4.91 and the pIC50 is 5.03. In the case of `COc1c(C(=O)/C(=N/Nc2ccc(C(=O)O)cc2)C(C)=O)c(O)cc2occc12`, the pEC50 was under 3.70 and the pIC50 was 3.96. As for `O=C(CC(=O)Nc1cccc(C(=O)O)c1)Nc1cccc(C(=O)O)c1`, the pEC50 is under 3.70 and the pIC50 was under 3.70. Turning to `Cn1c(N)c(N=Nc2ccc(S(=O)(=O)Nc3ccccn3)cc2)c(=O)n(C)c1=O`, the result was inactive. Regarding `Cc1cn(CC(CO)CCO)c(=O)[nH]c1=O` (stereo not drawn), the pEC50 is under 2.96 and the pIC50 is under 2.96. In the case of `CC(C)(CCCCC(C)(C)[N+](C)(C)C)[N+](C)(C)C`, the pEC50 is under 3.70 and the pIC50 is under 3.70. As to `C=CC(C)(C)C1(CC(OC)OC)C(=O)N(C)c2ccccc21` (stereo not drawn), the pEC50 is under 3.70 and the pIC50 is under 3.70. On to `N#Cc1cc2ccncc2c2ccccc12`, for which the pEC50 is under 4.48 and the pIC50 was 4.62.

Consider `N/N=C(/Cc1nc2ccc(C(=O)c3ccccc3)cc2[nH]c1=O)C(=O)Nc1ccc([N+](=O)[O-])cc1[N+](=O)[O-]`, for which the pEC50 is under 4.30 and the pIC50 was under 4.30. With `CCOP(=O)(OCC)C(c1ccccc1)N(C(=O)NC(F)(F)F)c1cccc(F)c1` (stereo not drawn), the pEC50 was under 3.70 and the pIC50 is 4.02.

As for `O=C(c1cccs1)N(C(=S)N1CCN(c2ccccn2)CC1)C1CCCCC1`, the pEC50 is under 4.90 and the pIC50 was 4.91. For `c1cc[c]([Pb]([c]2ccccc2)[c]2ccccc2)cc1`, the outcome was inactive. As to `O=C(O)CSC(=S)NCCNC(=S)SCC(=O)O`, the pEC50 is under 4.02 and the pIC50 was 4.14. In the case of `COC(=O)/C=C(/C=C1/C(C#N)=C(N)N(c2ccc(Cl)cc2)C1(C)/C(=C/C(=O)OC)C(=O)OC)C(=O)OC` (stereo not drawn), the pEC50 is under 3.70 and the pIC50 was 4.63.

As to `O=C1CCCC[C@H]1C(O)CC1CC(=O)N(c2ccccc2)C(=O)C1` (stereo partly drawn), the pEC50 is under 3.70 and the negative-log IC50 (pIC50) was under 3.70. As to `C[C@H](CCc1nc2ccccc2n1CCN(C)C)[C@H]1CC[C@H]2[C@@H]3CC[C@@H]4C[C@H](O)CC[C@]4(C)[C@H]3CC[C@]12C`, the pEC50 is 5.81 and the pIC50 was 5.32.

In the case of `COc1ccc(C2c3c(-c4ccccc4)nn(-c4ccccc4)c3Oc3ncn(N)c(=N)c32)cc1OC` (stereo not drawn), the pEC50 was under 3.70 and the pIC50 is 4.52. Regarding `COc1ccc(/C=C/C(=O)c2c(OC)cc(OC)c(OC)c2O)cc1`, the result was inactive. `CC(C)=C[C@@H]1C[C@H](n2cc(C)c(=O)[nH]c2=O)ON1CCO`: the pEC50 was under 3.70 and the pIC50 is under 3.70. In the case of `O=C(NO)c1ccc([N+](=O)[O-])cc1`, the pEC50 is under 3.70 and the pIC50 is 4.53.
